Columns and labels:
LC3B-II = assay: LC3B immunoblot in U87-MG cells; assay type: cell-based; settings: for amount of LC3B-II: TCH-165 10 μM 16 h or BafA1 100 nM 4 h, alone (FIG. 2A)
Method: (§1) U87-MG cells at 70% confluency were treated with test compounds at the reported concentration and time. Cells were washed with warm PBS and trypsinized with 0.25% Trypsin-EDTA. Samples were collected in chilled PBS, pelleted and washed twice with chilled PBS. Cells were then lysed with celLytic buffer supplemented with 1% sigma fast inhibitor cocktail. Total protein was quantified by BCA reagent, and 20 μg resolved on a 12% (LC3B) or 30 μg on a 4-12% (p62, ATG5, beclin1) Tris-glycine SDS-PAGE, and immunoblotted with antigen specific antibody (1:1000), and goat anti-rabbit HRP (1:1000). Blots were developed with ECL western reagent and imaged with x-ray film.
To determine whether TCH-165 affects LC3B-II formation, glioblastoma astrocytoma (U87-MG) cells were treated with TCH-165 and the level of LC3B-II monitored by immunoblot. U87-MG cells were incubated with different concentrations of TCH-165 and immunoblotted with LC3B-specific antibody. U87-MG cells were also treated with a specific amount of TCH-165 (10 μM) and evaluated at 0, 6, 12, and 24 hours. Cell lysates were immunoblotted with LC3B-specific antibody and anti-GAPDH as a loading control.
U87-MG cells were treated with either vehicle (DMSO) or TCH-165 (10 μM) for 16 h, followed by treatment with bafilomycin A1 (100 nM) for 4 h. Conversion of LC3BI to LC3BII was detected by immunoblot with LC3B-specific antibody.

autolysosome formation [1] = assay: Co-localization of LC3B with LAMP1 in U87MG cells; assay type: cell-based; settings: 10 μM, 24 h
Method: (§4) U87-MG cells were plated in complete medium at 2.5×10^5 cells/well of a four-chamber glass slide overnight. Fresh medium (500 μL) containing the test compound was added and allowed to incubate for the desire time under cell culture conditions. Cells were washed with chilled immunofluorescent (IF) wash buffer (1×PBS, pH 8.0) and fixed with methanol at −20° C. for 10 minutes. Cells were then washed 2× with IF wash buffer and incubated in blocking buffer (1×PBS, 5% normal goat serum, 0.3% Triton X-100 pH 8.0) for 1 h at RT. Blocking buffer was replaced with primary antibody diluted in dilution buffer (1×PBS, 1% BSA, 0.3% Triton X-100 pH 8.0) overnight (1:200) at 40° C. Primary antibody was washed off 3× and incubated in anti-rabbit Alexa Fluor 488 (1:500) and/or anti-mouse Alexa Fluor 594 for 1 h in the dark, at RT. Secondary antibodies were then washed off (3×) and nuclei stained with Hoechst (4 μg/mL) at RT, for 20 minutes. DNA dye was rinsed off and slides mounted in Prolong Gold and allowed to cure overnight at RT, in the dark. Slides were sealed with nail polish, and LC3B, LAMP1 and p62 punctae detected with a 60× Plan Apo oil objective on a Nikon C2+ or Nikon A1 confocal laser microscope.
Co-localization of LC3B with LAMP1 was therefore examined to distinguish inhibition of autolysosome formation from autolysosome de-acidification. […]

autolysosome formation [2] = assay: Tandem RFP-GFP-LC3B autophagy sensor in U87-MG cells; assay type: cell-based; settings: 10 μM, 24 h, FIG. 3A
Method: By combining an acid insensitive red fluorescent protein (RFP) with an acid sensitive green fluorescent protein (GFP), the conversion of autophagosomes (with neutral pH) to an autolysosome (with acidic pH) can be visualized by monitoring the specific loss of the GFP fluorescence upon acidification of the autophagosome following lysosomal fusion.
U87-MG cells were transduced with 30 particles per cell of tandem-RFP-GFP-LC3B and cultured for 24 h. Cells were then incubated with either vehicle or TCH-165 (10 μM) for an additional 24 h. Cells were fixed with 4% formaldehyde, counter stained with Hoechts DNA dye, and imaged on a Nikon C2 confocal microscope using standard filter sets for blue dye, GFP and RFP.

[3] = dog, in vivo
p62 [4] = assay: p62 immunoblot in U87-MG cells; assay type: cell-based; settings: concentration (FIG. 2C) and time (10 μM; 0-24 h, FIG. 2D) dependent
Method: as §1

Fel SCC1 = assay: Tumor cell growth inhibition, Fel SCC1; assay type: cell-based; settings: Felis catus; Feline Squamous Cell Carcinoma cell line Fel SCC1
Method: (§2) The pIC50 values shown in Table 1, herein, was determined as the negative log of the amount of compound required to inhibit tumor cell growth by 50% (the IC50). […] A pIC50 of 4 indicates an IC50 of 10-4.

[5] = tested on: lysosomes of HEK293T cells; assay: Lysosome de-acidification live imaging (LysoSensor yellow/blue dextran, LAMP1-RFP); assay type: cell-based, Human; settings: cells expressing LAMP1-RFP; TCH-165 10 μM, chloroquine 100 μM
Method: HEK293T cells cultured on cover glass slides were transduced with 30 particles per cell of LAMP1-RFP and cultured for 24 h. Cells were then incubated with either vehicle, TCH-165 (10 μM) or chloroquine (100 μM) for 12 h. LysoSensor Yellow/Blue dextran, 10,000 MW, Anionic (1 mg/mL) was then added for a further 12 h and cells imaged with an upright 60× Plan Apo oil objective on a Nikon A1 confocal microscope using standard filter sets for RFP, blue and yellow dyes.
Lysosensor yellow/blue dextran is a pH sensitive dye that is […] (neutral pH). Lysosomes were distinguished from other acidic organelles by imaging with a combination of lysosensor yellow/blue dextran and LAMP1-RFP.

Hela cells = assay: Tumor cell growth inhibition, Hela cells; assay type: cell-based; settings: Human Cervical Adenocarcinoma
Method: as §2

cOS Gracie = assay: Tumor cell growth inhibition, cOS Gracie; assay type: cell-based; settings: Canis lupus familiaris; Canine Osteosarcoma cell line cOS Gracie
Method: as §2

cOS Brandie primary = assay: Tumor cell growth inhibition, cOS Brandie primary; assay type: cell-based; settings: Canis lupus familiaris; Canine Osteosarcoma cell line cOS Brandie primary
Method: as §2

cOS Blaz = assay: Tumor cell growth inhibition, cOS Blaz; assay type: cell-based; settings: Canis lupus familiaris; Canine Osteosarcoma cell line cOS Blaz
Method: as §2

beclin-1, ATG5 and ATG12 = assay: Immunoblot of autophagic regulators in U87-MG cells; assay type: cell-based; settings: 24 h, FIG. 4
Method: as §1

cOS Ginger = assay: Tumor cell growth inhibition, cOS Ginger; assay type: cell-based; settings: Canis lupus familiaris; Canine Osteosarcoma cell line cOS Ginger
Method: as §2

HS DH82 = assay: Tumor cell growth inhibition, HS DH82; assay type: cell-based; settings: Canis lupus familiaris; Canine Histiocytic Sarcoma cell line HS DH82
Method: as §2

U87-MG cells [6] = assay: Cytotoxicity assay (LDH assay); assay type: cell-based; settings: Homo sapiens, U-87 MG, LDH-based assay, 72 h, FIG. 5E-5F
Method: U87-MG cells were seeded in a clear 96-well plate at a density of 1.0×10^4 cells per well. Cells were treated with different concentrations of TCH-165 or temozolomide for 72 h. Culture medium was then assayed for lactate dehydrogenase (LDH) activity according to the manufacturer's protocol. Briefly, cells for maximum toxicity were treated with 10 μL of lysis buffer 45 minutes prior to enzyme assay. Culture media (50 μL) were then transferred to new 96 well plate and 50 μL of substrate mix added. The reaction mixtures were incubated at RT protected from light for 30 minutes. Stop solution (50 μL) was then added and absorbance read at 490 nm. Toxicity was expressed as a fraction of sample treated with lysis buffer.

HS BD = assay: Tumor cell growth inhibition, HS BD; assay type: cell-based; settings: Canis lupus familiaris; Canine Histiocytic Sarcoma cell line HS BD
Method: as §2

HEK293 = assay: Cell growth inhibition, HEK293; assay type: cell-based; settings: Human Embryonic Kidney HEK293
Method: as §2

hOS Saos2 = assay: Tumor cell growth inhibition, hOS Saos2; assay type: cell-based; settings: SAOS-2; Human Osteosarcoma cell line hOS Saos2
Method: as §2

hOS MG63 = assay: Tumor cell growth inhibition, hOS MG63; assay type: cell-based; settings: MG-63; Human Osteosarcoma cell line hOS MG63
Method: as §2

Normal FB1 = assay: Cell growth inhibition, Normal FB1; assay type: cell-based; settings: Canis lupus familiaris; Canine Normal Firbroblasts Normal FB1
Method: as §2

cOS D17 = assay: Tumor cell growth inhibition, cOS D17; assay type: cell-based; settings: Canis lupus familiaris; Canine Osteosarcoma cell line cOS D17
Method: as §2

cOS Brandie mets = assay: Tumor cell growth inhibition, cOS Brandie mets; assay type: cell-based; settings: Canis lupus familiaris; Canine Osteosarcoma cell line cOS Brandie mets
Method: as §2

cOS Abrams = assay: Tumor cell growth inhibition, cOS Abrams; assay type: cell-based; settings: Canis lupus familiaris; Canine Osteosarcoma cell line cOS Abrams
Method: as §2

Normal FB2 = assay: Cell growth inhibition, Normal FB2; assay type: cell-based; settings: Canis lupus familiaris; Canine Normal Firbroblasts Normal FB2
Method: as §2

HS PJ = assay: Tumor cell growth inhibition, HS PJ; assay type: cell-based; settings: Canis lupus familiaris; Canine Histiocytic Sarcoma cell line HS PJ
Method: as §2

Fel SCC2 = assay: Tumor cell growth inhibition, Fel SCC2; assay type: cell-based; settings: Felis catus, SCC-2; Feline Squamous Cell Carcinoma cell line Fel SCC2
Method: as §2

hOS U2OS = assay: Tumor cell growth inhibition, hOS U2OS; assay type: cell-based; settings: Human Osteosarcoma cell line hOS U2OS
Method: as §2

LC3B = assay: Confocal immunofluorescence of LC3B in U87-MG cells; assay type: cell-based
Method: as §4
LC3B polypeptides were stained with LC3B antibody/Alexa Fluor 488 secondary (green) and the cellular nuclei were stained with Hoechst DNA dye (blue).

p62 [7] = assay: Confocal immunofluorescence of p62 in U87-MG cells; assay type: cell-based; settings: 10 μM, 24 hr, immunofluorescence imaging
Method: All statistical analyses were performed on densitometry data (imageJ) of five individual experiments. Data are graphed as mean±SD and were analyzed by One-Way ANOVA with Bonferroni's multiple comparison test or by student t-test for 2 samples (ns=not significant, *p<0.05, *p<0.01, **p<0.001).
U87-MG cells were plated in complete medium at 2.5×10^5 cells/well of a four-chamber glass slide overnight. Fresh medium (500 μL) containing the test compound was added and allowed to incubate for the desire time under cell culture conditions. Cells were washed with chilled immunofluorescent (IF) wash buffer (1×PBS, pH 8.0) and fixed with methanol at −20° C. for 10 minutes. Cells were then washed 2× with IF wash buffer and incubated in blocking buffer (1×PBS, 5% normal goat serum, 0.3% Triton X-100 pH 8.0) for 1 h at RT. Blocking buffer was replaced with primary antibody diluted in dilution buffer (1×PBS, 1% BSA, 0.3% Triton X-100 pH 8.0) overnight (1:200) at 40° C. Primary antibody was washed off 3× and incubated in anti-rabbit Alexa Fluor 488 (1:500) and/or anti-mouse Alexa Fluor 594 for 1 h in the dark, at RT. Secondary antibodies were then washed off (3×) and nuclei stained with Hoechst (4 μg/mL) at RT, for 20 minutes. […] Slides were sealed with nail polish, and LC3B, LAMP1 and p62 punctae detected with a 60× Plan Apo oil objective on a Nikon C2+ or Nikon A1 confocal laser microscope.

Fel SCC3 = assay: Tumor cell growth inhibition, Fel SCC3; assay type: cell-based; settings: Felis catus, SCC-3; Feline Squamous Cell Carcinoma cell line Fel SCC3
Method: as §2

U87-MG cells [8] = assay: Cell viability assay (MTS assay); assay type: cell-based; settings: U87-MG, 72 h
Method: (§3) FIG. 5B graphically illustrates the viability of glioblastoma cells treated with different concentrations of TCH-165 or TCH-023 for 72 h. MTS reagent was added to quantify cell viability and the absorbance measured at 490 nm 2 h later. Absorbance readings are expressed as percentage of vehicle control for three independent experiments and data are graphed as mean±SD.
as §3, with “5D is a bar graph showing” for “5B graphically illustrates”, “temozolomide” for “TCH-023”, “was then” for “was”, “added” for “added to quantify cell viability”, “and” for “and the”
U87-MG cells were seeded in a clear 96-well plate at a density of 1.0×10^4 cells per well. Cells were treated with different concentrations of TCH-165 or temozolomide for 72 h. MTS solution (20 μL) was then added and incubated under cell culture conditions for 2 h. Absorbance was read at 490 nm and expressed as a percentage of vehicle control.

MCT C2 = assay: Tumor cell growth inhibition, MCT C2; assay type: cell-based; settings: Canis lupus familiaris; Canine Mastocytoma cell line MCT C2
Method: as §2

[9] = tested on: lysosome associated membrane protein (LAMP)-1; assay: Confocal immunofluorescence of LAMP1 in U87-MG cells; assay type: cell-based; settings: 10 μM, 24 h, FIG. 1D
Method: as §4

For `CO/C1=C\C(C)=C\[C@@H](C)[C@@H](O)[C@@H](C)C/C(C)=C/C=C/[C@H](OC)[C@@H]([C@@H](C)[C@@H](O)[C@H](C)[C@@]2(O)C[C@@H](O)[C@H](C)[C@@H](C(C)C)O2)OC1=O` [BafA1, bafilomycin A1, reference compound], the “amount of LC3B-II” value (LC3B-II; U87-MG) was “significant increase”.
For `CCOC(=O)[C@]1(c2ccccc2)N=C(c2ccc(OC)cc2)N(Cc2ccccc2)[C@@H]1c1ccc(NCc2ccccc2)cc1` [TCH-165], the “Co-localization of LC3B and LAMP1” value (autolysosome formation [1]) was “not observed”, the “GFP and RFP fluorescence of vacuoles in RFP-GFP-LC3B cells” value (autolysosome formation [2]) was “retained both GFP and RFP positive vacuoles” and the “tolerance / signs of toxicity” value [3] was “without showing any clinical or biochemical signs of toxicity”. The p62 level (p62 [4]) was “increase in p62”, the IC50 (Fel SCC1) was 2 µM and the “LC3B-II levels versus TCH-165 alone” value (LC3B-II; U87-MG, TCH-165 10 μM 16 h followed by BafA1 100 nM 4 h) was “did not further increase”. The “amount of LC3B-II” value (LC3B-II; U87-MG) was “significant increase”, the LC3B-II levels (LC3B-II; U87-MG, different concentrations, 10 μM at 0, 6, 12, 24 h (FIG. 1A, 1B)) was “increases LC3B-II levels” and the “lysosensor yellow/blue dextran fluorescence of lysosomes” value [5] was “mainly had red/blue vacuoles”. For the same compound, the IC50 (Hela cells) was 7.94 µM, the IC50 (cOS Gracie) was 2 µM and the IC50 (cOS Brandie primary) was 3.16 µM. For the same compound, the IC50 (cOS Blaz) was 6.31 µM, the “effect on expression of beclin-1, ATG5 and ATG12” value (beclin-1, ATG5 and ATG12) was “did not appear to have any significant effect” and the IC50 (cOS Ginger) was 7.94 µM. It also gave an IC50 (HS DH82) of 2 µM, a GI50 (U87-MG cells [6]) of 7 µM and an IC50 (HS BD) of 6.31 µM. For the same compound, the IC50 (HEK293) was 2 µM, the IC50 (hOS Saos2) was 3.16 µM and the IC50 (hOS MG63) was 3.16 µM. For the same compound, the IC50 (Normal FB1) was 200 µM, the IC50 (cOS D17) was 6.31 µM and the IC50 (cOS Brandie mets) was 3.98 µM. It also gave an IC50 (cOS Abrams) of 12.6 µM, an IC50 (Normal FB2) of 20 µM and an IC50 (HS PJ) of 3.16 µM. The IC50 (Fel SCC2) was 25.1 µM, the IC50 (hOS U2OS) was 5.01 µM and the “number of LC3B punctate” value (LC3B; 10 μM, 16 hours, FIG. 1C) was “significant increase”. The “number of autophagic vacuoles” value (LC3B; torin1 100 nM 4 h followed by TCH-165 10 μM 16 h, FIG. 2B) was “significantly increased”, the p62 punctae (p62 [7]) was “increase in p62 punctae” and the IC50 (Fel SCC3) was 200 µM. For the same compound, the GI50 (U87-MG cells [8]; Homo sapiens, U-87 MG, MTS-based assay, FIG. 5B) was 4.5 µM, the IC50 (MCT C2) was 100 µM and the “number of lysosomes (LAMP1 staining)” value [9] was “increased numbers of lysosomes”.
In the case of `CCC(=O)N1CCN(c2ccc(-n3c(=O)ccc4cnc5ccc(-c6cnc7ccccc7c6)cc5c43)cc2C(F)(F)F)CC1` [torin1, reference compound], the “accumulation of autophagic vacuoles” value (LC3B; torin1 100 nM alone, FIG. 2B) is reported as “modest accumulation”.
With `CCOC(=O)[C@]1(c2ccccc2)N=C(c2ccccc2)N[C@@H]1c1ccccc1` [TCH-023, reference compound] the LC3B-II accumulation (LC3B-II; U87-MG, structurally related control) was “no effect”, the “inhibition of autophagy (LC3B immunoblot)” value (LC3B-II; glioblastoma cells, 10 μM, 24 h, FIG. 5C) was “did not inhibit autophagy” and the “induction of cell death” value (U87-MG cells [8]) was “did not induce any cell death”.
